SMILES strings stand for the structures.

Broadly, the MIC is the lowest concentration that inhibits growth of the organism.

Series [1] can be described thus: Solubility of test articles in stock solutions and at final test concentrations. It counts as physicochemical. The conditions noted are these: stock solution in DMSO:water (1:1). As to the method: Test articles of stock solutions of daptomycin (Cubist, lot MCB2007) and TR-700 were prepared at 40 times the final target concentration in DMSO:water (1:1). DMSO was added first, the solutions were allowed to stand for 60 minutes and then the water was added. […] The final DMSO concentration was 2.5%. The final drug concentrations in the FIC assay plates were set to bracket the MIC value of each test article for each test organism, unless the strain was totally resistant to the test article.

The subject of series [2] is Streptococcus pyogenes 717. Kind of series: FIC checkerboard broth microdilution. Format: cell-based. As to the method: (§1) Test articles of stock solutions of daptomycin (Cubist, lot MCB2007) and TR-700 were prepared at 40 times the final target concentration in DMSO:water (1:1). DMSO was added first, the solutions were allowed to stand for 60 minutes and then the water was added. TR-700 formed a precipitate above 1280 μg/ml; therefore, this was the highest concentration used. […] The final DMSO concentration was 2.5%. The final drug concentrations in the FIC assay plates were set to bracket the MIC value of each test article for each test organism, unless the strain was totally resistant to the test article.
(§2) The test organisms were originally received from clinical sources, or from the American Type Culture Collection. Upon receipt in our laboratory, the isolates were streaked onto the appropriate growth medium: Tryptic Soy Agar II (Becton Dickinson, Sparks, Md.) supplemented with 5% defibrinated sheep blood for streptococci, and unsupplemented Tryptic Soy Agar II for all other organisms. Colonies were harvested from these plates and a cell suspension was prepared in Tryptic Soy Broth (Becton Dickinson) containing cryoprotectant. Aliquots were then frozen at −80° C. On the day prior to assay, the frozen seeds of the organisms to be tested in that session were thawed and streaked for isolation onto the appropriate agar medium plates and incubated overnight at 35° C. The test organisms were: • Staphylococcus aureus 2053 (methicillin-resistant) • Enterococcus faecalis 795 (vancomycin-susceptible) • Streptococcus pyogenes 717 • Streptococcus pneumoniae 880 (penicillin-resistant) • Escherichia coli 102 (ATCC 25922)
(§3) Streptococci were tested in Mueller Hinton II Broth (Becton Dickinson; Lot 7024879 and 7143673) supplemented with 2% lysed horse blood (Cleveland Scientific, Bath, Ohio; Lot H10472). All other organisms were tested in Mueller Hinton II Broth. The broth was prepared at 1.05× normal weight/volume to offset the 5% volume of the drugs in the final test plates.
(§4) FIC values were determined using a broth microdilution method previously described. See, Sweeney, M T and Zurenko, G E. 2003. In vitro activities of linezolid combined with other antimicrobial agents against staphylococci, enterococci, pneumococci and selected Gram-negative organisms. Antimicrob. Agents Chemother. 47:1902-1906. Automated liquid handlers (Multidrop 384, Labsystems, Helsinki, Finland; Biomek 2000 and Multimek 96, Beckman Coulter, Fullerton Calif.) were used to conduct serial dilutions and liquid transfers.
(§5) The wells (columns 2-12) of standard 96-well microdilution plates (Falcon 3918) were filled with 150 μL of 50% DMSO using the Multidrop 384. Column 1 wells were filled with 300 μl of the 40× stock solutions. […]
Background: Broth dilution looks for growth in wells or tubes with falling amounts of substance.

The test system of series [3] is Streptococcus pneumoniae 880. Kind of series: FIC checkerboard broth microdilution. It counts as cell-based. As to conditions: agent alone. As to the method:
as §1, §2, §3, §4, §5

Series [4] has as its system Enterococcus faecalis 795 (VSE). Kind of series: FIC checkerboard broth microdilution. It counts as cell-based. The conditions noted are these: agent alone. As to the method: as §1, §2, §3, §4, §5
The subject of series [5] is Staphylococcus aureus 2053 (MRSA). Kind of series: FIC checkerboard broth microdilution. It counts as cell-based. The conditions noted are these: agent alone. The method, then: as §1, §2, §3, §4, §5

Regarding `Cn1nnc(-c2ccc(-c3ccc(N4C[C@H](CO)OC4=O)cc3F)cn2)n1` [TR-700, Tedizolid], the “concentration above which a precipitate formed” value in series [1] is “above 1280 μg/ml”. Besides, the MIC in series [2] is 0.125 µg/mL; in series [3] it was 0.25 µg/mL; in series [4], 0.5 µg/mL; in series [5], 0.5 µg/mL.

These data come from patent US20130274174A1, “THERAPEUTIC COMBINATION OF DAPTOMYCIN AND PROTEIN SYNTHESIS INHIBITOR ANTIBIOTIC, AND METHODS OF USE” (priority 2011, published 2013).
